# PMC11325084, “Pharmacokinetics and tissue distribution of LN002, a new compound alternative oxidase inhibitor against Cryptosporidium in rats” (Frontiers in Pharmacology, 2024)
# Where two headings read alike, the source gives them in different places.
# Experiment: Pharmacokinetics of LN002 in rat plasma after single intravenous injection or oral gavage
# Assay type: in vivo, Sprague–Dawley (SD) rats
# Settings: rats; for AUC(0-t): read-out: AUC0–24 h
# Description: A total of 24 SD rats, half for each sex, were randomly distributed into four groups and used in the plasma PK study. Heparin sodium was used to prevent blood clotting. Groups 1, 2, and 3 were single-dose oral administration groups, and the administered doses were 100, 200, and 400 mg/kg, respectively. The fourth group was a single-dose group, in which the subjects received 1 mg/kg LN002 via tail vein intravenous injection (In the oral administration group, the drugs were dissolved in 0.5% sodium carboxymethylcellulose, whereas those in the intravenous injection group were dissolved in N,N-dimethylformamide). After administration for each group, approximately 200–300 μL of plasma samples were collected from the tail vein at predefined times (0.167, 0.5, 0.75, 1, 2, 3, 4, 6, 8, 12, and 24 h) ([Song et al., 2021a]). Subsequently, these samples were then placed in centrifuge tubes containing heparin sodium, subjected to centrifugation at 5000 rpm for 10 min at 4°C, and the resulting supernatant was collected and stored at −20°C until further analysis. An aliquot of 100 µL of rat plasma was transferred into a 2 mL Eppendorf (EP) tube and precipitated with 300 µL of acetonitrile. The mixture was vortexed for 1 min, then centrifuged at 13,000 rpm at 4°C for 10 min, and passed through a 0.22 μm filter membrane. Final analysis was conducted by injecting 20 µL of supernatant into HPLC. A Shimadzu LC-20A system (Shimadzu Technologies, Kyoto, Japan) equipped with a LabSolutions system (version 5.1) system was used for HPLC analysis. The separation process utilized an ARD-C18 column (250 mm × 4.6 mm, 5 µm) (Zhongpu Technology Co., Ltd., Fuzhou, China). The analytes were detected using a UV detector at 333 nm. The chromatographic conditions used an isocratic mobile phase that combines methanol (solvent A) and deionized water (solvent B) (75:25, v/v), and they were propelled through the column at a constant flow rate of 1 mL/min, ensuring uniform separation. The injection volume was 20 μL. The temperature of the column was set to 40°C. Pharmacokinetic data were obtained via non-compartmental PK analysis of total concentration versus time profiles for plasma using Phoenix WinNonlin 8.2 (Certara, L.P., Princeton, NJ, United States). Statistical analysis and graphing were undertaken using GraphPad Prism 9.5 for Windows (GraphPad Software, Inc., La Jolla, CA, United States).
# [1] = both sexes, Sprague-Dawley, rat, iv, plasma, i.v. 1 mg/kg, n = 6, mean ± SD
# [2] = both sexes, Sprague-Dawley, rat, plasma, iv, 1 mg/kg, i.v. 1 mg/kg, n = 6, mean ± SD
# [3] = both sexes, Sprague-Dawley, rat, plasma, po, 100 mg/kg, oral 100 mg/kg, n = 6, mean ± SD
# [4] = both sexes, Sprague-Dawley, rat, plasma, po, 200 mg/kg, oral 200 mg/kg, n = 6, mean ± SD
# [5] = both sexes, Sprague-Dawley, rat, plasma, po, 400 mg/kg, oral 400 mg/kg, n = 6, mean ± SD
# [6] = both sexes, Sprague-Dawley, rat, plasma, po, 400 mg/kg, oral single dose, range across 100, 200 and 400 mg/kg
# [7] = both sexes, Sprague-Dawley, rat, plasma, oral 100 mg/kg, n = 6, mean ± SD
# [8] = both sexes, Sprague-Dawley, rat, plasma, oral 200 mg/kg, n = 6, mean ± SD
# [9] = both sexes, Sprague-Dawley, rat, plasma, oral 400 mg/kg, n = 6, mean ± SD
smiles,measurement,setting,value
"N#C/C(=C\c1c[nH]nc1-c1ccccc1)c1nn(-c2ccccc2)c(N)c1C#N [LN002, 5-amino-3-[1-cyano-2-(3-phenyl-4-vinopyrazole))-1-phenyl-4-vinopyrazole]",Tmax,"both sexes, Sprague-Dawley, rat, iv, plasma, i.v. 1 mg/kg, n = 6",0.75 h
same,AUC(0-inf),[1],8650 ± 1940 ng·h/mL
same,clearance,[1],1.83 mL/min/kg
same,Vd,"both sexes, Sprague-Dawley, rat, iv, plasma, i.v. 1 mg/kg, n = 6, mean ± SD, read-out: Vd",1.69 ± 0.44 L/kg
same,Cmax,[2],2940 ± 2160 ng/mL
same,half-life,[2],10.9 ± 6.56 h
same,AUC(0-t),"both sexes, Sprague-Dawley, rat, plasma, iv, 1 mg/kg, plasma, i.v. 1 mg/kg, n = 6, mean ± SD",7020 ± 1520 ng·h/mL
same,Cmax,[3],850 ± 190 ng/mL
same,half-life,[3],18 ± 5.82 h
same,bioavailability,"both sexes, Sprague-Dawley, rat, plasma, po, 100 mg/kg, oral 100 mg/kg, read-out: F (oral bioavailability)",0.32%
same,AUC(0-t),"both sexes, Sprague-Dawley, rat, plasma, po, 100 mg/kg, plasma, oral 100 mg/kg, n = 6, mean ± SD",2280 ± 227 ng·h/mL
same,CL/F,"both sexes, Sprague-Dawley, rat, plasma, po, 100 mg/kg, plasma, oral 100 mg/kg, n = 6, mean ± SD, read-out: Cl (Cl/F in text) (converted)",433 mL/min/kg
same,Cmax,[4],1670 ± 106 ng/mL
same,half-life,[4],18 ± 14.8 h
same,bioavailability,"both sexes, Sprague-Dawley, rat, plasma, po, 200 mg/kg, oral 200 mg/kg, read-out: F (oral bioavailability)",0.29%
same,AUC(0-t),"both sexes, Sprague-Dawley, rat, plasma, po, 200 mg/kg, plasma, oral 200 mg/kg, n = 6, mean ± SD",4070 ± 779 ng·h/mL
same,CL/F,"both sexes, Sprague-Dawley, rat, plasma, po, 200 mg/kg, plasma, oral 200 mg/kg, n = 6, mean ± SD, read-out: Cl (Cl/F in text) (converted)",524 mL/min/kg
same,Cmax,[5],4030 ± 410 ng/mL
same,half-life,[5],18.8 ± 11.4 h
same,bioavailability,"both sexes, Sprague-Dawley, rat, plasma, po, 400 mg/kg, oral 400 mg/kg, read-out: F (oral bioavailability)",0.27%
same,Cmax,[6],850 to 4030 ng/mL
same,half-life,[6],18 to 18.8 h
same,bioavailability,"both sexes, Sprague-Dawley, rat, plasma, po, 400 mg/kg, oral single dose, range across 100, 200 and 400 mg/kg, read-out: F",0.27 to 0.32%
same,AUC(0-t),"both sexes, Sprague-Dawley, rat, plasma, po, 400 mg/kg, plasma, oral 400 mg/kg, n = 6, mean ± SD",7500 ± 507 ng·h/mL
same,CL/F,"both sexes, Sprague-Dawley, rat, plasma, po, 400 mg/kg, plasma, oral 400 mg/kg, n = 6, mean ± SD, read-out: Cl (Cl/F in text) (converted)",650 mL/min/kg
same,AUC(0-t),"both sexes, Sprague-Dawley, rat, plasma, po, 400 mg/kg, plasma, oral single dose, range across 100, 200 and 400 mg/kg",2280 to 7500 ng·h/mL
same,CL/F,"both sexes, Sprague-Dawley, rat, plasma, po, 400 mg/kg, plasma, oral single dose, range across 100, 200 and 400 mg/kg, read-out: Cl/F",433 to 650 mL/min/kg
same,Tmax,"both sexes, Sprague-Dawley, rat, plasma, oral 100 mg/kg, n = 6",1 h
same,AUC(0-inf),[7],3530 ± 734 ng·h/mL
same,Vd/F,[7],582 ± 270 L/kg
same,Tmax,"both sexes, Sprague-Dawley, rat, plasma, oral 200 mg/kg, n = 6",1 h
same,AUC(0-inf),[8],6030 ± 2310 ng·h/mL
same,Vd/F,[8],764 ± 314 L/kg
same,AUC(0-inf),[9],11400 ng·h/mL
same,Vd/F,[9],869 ± 279 L/kg
same,Tmax,"both sexes, Sprague-Dawley, rat, plasma, oral single dose, across 100, 200 and 400 mg/kg",1 h
same,PK behaviour over dose (in words),"oral 100, 200 and 400 mg/kg",linear
same,Vd,"plasma, oral single dose, range across 100, 200 and 400 mg/kg",581.54 to 869.21 L/kg
